# According to publication PMC9895975 (Scientific Reports, 2023):
# Tests used:
# [1] = Global hydrodynamic fit SingleHYDFIT (E2 protocol); format: physicochemical; settings: assumed molar mass of 18-mer (33835 Da) and of 19-mer (35714 Da), same result for both
# Excerpt: To check this, we use a global fitting approach known as SingleHYDFIT[54] which combines intrinsic viscosity data with sedimentation coefficient and dynamic light scattering (hydrodynamic radius) data together, along with the molecular weight and partial specific volume. It involves the minimization of a global fitting function (Fig. 7). The E2 protocol (ratio of ellipsoid) was chosen and run twice: once with an assumed molar mass equivalent of an 18-mer (33835 Da) and once again with an assumed molar mass of 19-mer (35714 Da). Delta (Δ) was plotted against axial ratio, where values < 1 mean oblate and > 1 mean prolate (Fig. 7).
# [2] = below that value a gel might be formed in solution; cited from earlier work
# Protocol: Although it is important to explore how teicoplanin binds to the Lipid II moiety regardless of its phenotypes, the knowledge of the biological form of teicoplanin in an aqueous solution is of importance. Teicoplanin and its aglycon derivatives[25] use their long […] chain to attach themselves to the targeted sites. It is known that the minimum volume of solvent required to dissolve 400 mg of teicoplanin is 3 ml because, below that value, a gel might be formed in solution[10]. Teicoplanin derivatives have also been reported to create nano-sized aggregates in aqueous solution[26]. This gelati ...
# SARS-CoV virus = settings: cited from earlier work
# [3] = Partial specific volume from solution/solvent densities (digital density meter); format: physicochemical; settings: c = 10.2 mg/mL; Anton-Paar digital density meter; PBS
# Protocol: The partial specific volume υ¯ from solution/ solvent densities was determined using an Anton-Paar (Graz, Austria) digital density meter, and application of:1 υ¯=1/ρ0·1-ρ-ρ0/c at a concentration, c, of 10.2 mg/mL, and where ρ and ρ0 are the densities of the solution and solvent, respectively.
# [4] = Sedimentation equilibrium in the analytical ultracentrifuge (SE-AUC, SEDFIT-MSTAR); format: physicochemical; settings: for concentration from which the self-association (Mw,app) plateaus: range 0-10 mg/mL, hinge point and M* methods
# Protocol: (§1) Teicoplanin samples were prepared in a phosphate-chloride buffered saline solution (PBS, or “Paley buffer”) at pH ~ 6.8 and, by adding NaCl, adjusted to an ionic strength of I = 0.1 mol/L[38].
# Sedimentation equilibrium experiments were used to obtain equilibrium concentration distribution profiles for absolute molecular weight measurement. An Optima XL-I analytical ultracentrifuge was also employed but at a lower temperature of 7 °C because of the longer duration of a sedimentation equilibrium experiment compared to sedimenation veloicity. To characterise the self-association/aggregation of teicoplanin, 12 mm double sector epoxy cells were loaded with the same volumes (100 μL ) of both solution and solvent and run at 45,000 rpm for a run time of ~ 48 h. Records of concentration distributions of teicoplanin at equilibrium were subsequently analysed using the model-independent SEDFIT-MSTAR algorithm. Since the non-ideality of teicoplanin is negligible we estimated that apparent weight average molar masses Mw,app were approximately equal to the true weight average molar masses Mw. The multiple concentrations used effectively represent repeats for the sedimentation equilibrium (and sedimentation velocity) experiments.
# To determine the weight-average molar masses Mw of teicoplanin, the M* extrapolation method[45] and hinge point analysis, both incorporated in the sedimentation equilibrium-based SEDFIT–MSTAR software[44] were used. […] Rayleigh interference optics provides an accurate record of a sedimentation equilibrium concentration profile c(r) vs r, which means that the local concentration c(r) at the radial position r (cm) is from the rotation centre. M*(r) is a useful operational point average molar mass parameter. M*(r → rb) = Mw is the weight average molar mass over the whole macromolecular distribution, where r is the radial position at the cell base. This method is particularly advantageous for polydisperse/ or self-associating systems. As an additional check, the “hinge point method” (the value of the point weight average molar mass, Mw(r) at the “hinge point” in the sedimentation equilibrium distribution, i.e. the radial position in the cell where the local concentration c(r) = the original loading concentration) provides another estimate for the whole distribution molar mass Mw[44].
# [5] = Conformational analysis from intrinsic viscosity (ELLIPS1, Einstein-Simha shape factor); format: physicochemical; settings: for axial ratio (a/b) oblate / axial ratio (a/b) prolate: ELLIPS1; for viscosity shape function ν: [η] = 3.2 mL/g; for swelling ratio vs/υ¯ through dynamic hydration: maximum value, corresponds to a/b = 1 (sphere), confirmed by SingleHYDFIT
# Excerpt: In order to interpret this in terms of a molecular shape account needs to be taken of the contribution of the swollen specific volume of the assembly in solution vs (which will be swollen due to a time-averaged association with the surrounding solvent through dynamic hydrogen bonding and other associative processes)[43]:6 [η]=ν.vs
# Equation (6) ν is the Einstein-Simha shape factor. vs is likely to be higher for the glycopeptide than for proteins due to the relatively large proportion of carbohydrate which tends to have a greater affinity for solvent. In Table 1 values of the shape factor ν , and their corresponding ellipsoid of revolution axial ratios a/b were calculated based on either a prolate or oblate model, using the routine ELLIPS1 (Harding et al. 1997) for 3 cases of vs/ υ¯ , including the (unlikely) case of no swelling vs/ υ¯ = 1. The maximum value for vs/ υ¯ ~ 2, which corresponds to the minimum value of a/b = 1 (i.e. a sphere, Fig. 6), and this seems the most likely scenario.
# [6] = Sedimentation velocity in the analytical ultracentrifuge (SV-AUC); format: physicochemical; settings: for concentration above which the sedimentation coefficient distribution is unimodal (assembled form): SEDFIT
# Protocol: as §1
# Experiments to determine sedimentation coefficients and sedimentation coefficient distributions were performed at a temperature of 20.0 °C (at which standardised values are easily calculated) using an Optimal XL-I analytical ultracentrifuge (Beckman Instruments, Palo Alto, CA, USA) with Rayleigh interference optics. Teicoplanin samples (400 μL ) and reference solvent (PBS, 420 μL ) were injected into channels of the 12 mm double sector epoxy cells with sapphire windows. These cells were then centrifuged at 47,500 rpm for a run time of ~ 24 h and the data obtained were analysed in SEDFIT using the least squares, ls-g*(s) processing method. This generates the sedimentation coefficient distribution, g(s) versus sT,b , where sT,b is the sedimentation coefficient, at temperature T in buffer b. The s value in Svedberg units, S = 10^-13 seconds, was then normalised to standard conditions (density ρ20,w and viscosity η20,w of water at 20.0 °C) to give s20,w from the Eq. [43]:2 s20,w=1-υ¯·ρ20,w/1-υ¯·ρT,b·ηT,b/η20,w·sT,b where ρT,b and ηT,b are the density and the viscosity of buffer b at temperature T, respectively.
# [7] = Hydrodynamic radius by dynamic light scattering (DLS); format: physicochemical; settings: 12.5 mg/mL; 20.0 °C; scattering angle 173°; Zetasizer Nano-S; averaged over several measurements
# Protocol: Dynamic or quasi-elastic light scattering (DLS or QLS) measurements were made on the fixed scattering angle Zetasizer Nano-S system (Malvern instruments Ltd., Malvern UK) equipped with a 4mW He–Ne laser at a wavelength of 632.8nm[46],[47]. Samples in solution were measured in a quartz cuvette at 20.0 °C. A scattering angle of 173° was used, and collected in manual mode, requiring a measurement duration of 90 s, averaged over several measurements. The resulting data were analysed using the “Zetasizer Software (Version 7.1)” (Malvern Instruments Ltd., Malvern, UK), providing a volume distribution of translational diffusion coefficients based on a form of the CONTIN program. The viscosity of the buffer used was calculated using a solvent builder interface and takes the effects of buffer salts into account. The z-average hydrodynamic radii rz (nm), were evaluated from the z-average translational diffusion coefficients Dz by the Stokes–Einstein Eq. [47]:3 rz=kBT/{6πηoDz} where kB is the Boltzmann constant, T is the absolute temperature and η is the viscosity of the medium. […] (ii) the teicoplanin in its monomeric and multi-meric form were quasi-spheroidal and not asymmetric so there was no angular dependence of the measured Dz, values on anisotropic rotational diffusion effects—i.e. an extrapolation to zero angles was not necessary.
# [8] = Intrinsic viscosity, capillary (rolling ball) viscometry; format: physicochemical; settings: 10.2 mg/mL; 25.0 °C; rolling ball viscometer AMVn; Solomon-Ciuta relation; phosphate-chloride buffer pH 6.8, I = 0.10 M
# Protocol: Teicoplanin solutions were analysed using the capillary viscometer AMVn (Anton-Paar, Graz, Austria). This measurement was conducted at a temperature of 25.0 °C based on the rolling ball viscosity method. With a 1.4 mm steel ball moving in a 1.6 mm diameter glass capillary, the flow times (averaged over repeat measurements) of the solvent and solution were then determined. The relative viscosity was calculated from the equation:4 ηrel=ρ·t/ρ0·t0=ηsp+1 where ηsp is the specific viscosity. Then the intrinsic viscosity η was estimated from the Solomon-Ciuta relation[52] at a concentration of 10.2 mg/ml, which gave a sufficient flow time increment between solvent and solution:5 η≈1/c·2ηsp-2lnηrel^1/2
# [9] = Sedimentation equilibrium in the analytical ultracentrifuge (SE-AUC, SEDFIT-MSTAR); format: physicochemical; settings: M* method, 0-10 mg/mL, corresponds to the unimer
# [10] = without a lipid chain; cited from earlier work
# CTSL-dependent viruses = settings: cited from earlier work
# [11] = phosphate-chloride buffer pH 6.8, I = 0.10 M, 7 °C, SEDFIT-MSTAR
# [12] = assumed vs/υ¯ = 1 (no swelling)
substance,measurement,setting,value
teicoplanin A2,axial ratio of the assembly from SingleHYDFIT,[1],1.0 ± 0.0
same,minimum volume of solvent required to dissolve 400 mg,[2],3 mL
same,effect on cell entry of the SARS-CoV virus,SARS-CoV virus,inhibited cell entry
same,partial specific volume υ¯,[3],0.64 ± 0.01 mL/g
same,"number of monomers in the assembly (mers), M* method","[4]; from plateau Mw 33,000 g/mol, buffer pH 6.8, I = 0.10 M",~ 18 mers
same,"number of monomers in the assembly (mers), hinge point method","[4]; from plateau Mw 35,400 g/mol, buffer pH 6.8, I = 0.10 M",~19 ± 1 mers
same,"plateau weight average molar mass Mw,app, M* method","[4]; phosphate-chloride buffer pH 6.8, I = 0.10 M, 7 °C, 45,000 rpm, ~48 h, SEDFIT-MSTAR, c from 1 mg/mL","33,000 ± 1000 g/mol"
same,"plateau weight average molar mass Mw,app, hinge point method","[4]; phosphate-chloride buffer pH 6.8, I = 0.10 M, 7 °C, 45,000 rpm, ~48 h, SEDFIT-MSTAR, c from 1 mg/mL up to 10 mg/mL","35,400 ± 1000 g/mol"
same,apparent weight average molar mass Mw extrapolated to zero concentration (M* method),[4]; [11],1.9 ± 0.1 kDa
same,"weight average molar mass extrapolated to zero concentration, hinge point method Mw(rhinge)",[4]; [11],2.7 ± 0.1 kDa
same,"concentration from which the self-association (Mw,app) plateaus","[4]; phosphate-chloride buffer pH 6.8, I = 0.10 M",> 1000 µg/mL
same,"concentration from which the self-association (Mw,app) plateaus","[4]; phosphate-chloride buffer pH 6.8, I = 0.10 M, listed as teicoplanin",1000 µg/mL
same,"size of the self-associated assembly (n-mer), overall","[4]; phosphate-chloride buffer pH 6.8, I = 0.10 mol/L, AUC and viscometry combined",18–19 mer
same,swollen specific volume vs,[5]; [12],0.64 mL/g
same,axial ratio (a/b) oblate,[5]; [12],5.4
same,axial ratio (a/b) prolate,[5]; [12],4.3
same,viscosity shape function ν,[5]; [12],5.0
same,swollen specific volume vs,[5]; assumed vs/υ¯ = 1.5,0.96 mL/g
same,axial ratio (a/b) oblate,[5]; assumed vs/υ¯ = 1.5,2.8
same,axial ratio (a/b) prolate,[5]; assumed vs/υ¯ = 1.5,2.5
same,viscosity shape function ν,[5]; assumed vs/υ¯ = 1.5,3.3
same,swollen specific volume vs,[5]; assumed vs/υ¯ = 2,1.28 mL/g
same,axial ratio (a/b) oblate,[5]; assumed vs/υ¯ = 2,1
same,axial ratio (a/b) prolate,[5]; assumed vs/υ¯ = 2,1
same,viscosity shape function ν,[5]; assumed vs/υ¯ = 2,2.5
same,swelling ratio vs/υ¯ through dynamic hydration,[5],~ 2
same,swelling ratio vs/υ¯ through dynamic hydration,[5]; listed as teicoplanin,2
same,s-value (not normalised) of teicoplanin dissolved in 6 M GuHCl,"[6]; 6 M GuHCl, SV-AUC",~ 0.7 S
same,"s20,w of teicoplanin dissolved in 6 M GuHCl","[6]; 6 M GuHCl, SV-AUC, normalised to water at 20.0 °C",1.17 ± 0.01 S
same,"sedimentation coefficient s20,w of the self-associated assembly (upper extrapolated value)","[6]; phosphate-chloride buffer pH 6.8, I = 0.10 M, 20.0 °C, 47,500 rpm, ~24 h, Rayleigh interference optics, SEDFIT ls-g*(s), s vs c plot, 0-5 mg/mL",~ 4.65 S
same,concentration above which the sedimentation coefficient distribution is unimodal (assembled form),"[6]; phosphate-chloride buffer pH 6.8, I = 0.10 M, 20.0 °C",> 500 µg/mL
same,concentration above which the sedimentation coefficient distribution is unimodal (assembled form),"[6]; phosphate-chloride buffer pH 6.8, I = 0.10 M, 20.0 °C, listed as teicoplanin",> 500 µg/mL
same,"sedimentation coefficient, lower extrapolated value (predicted value for a spheroidal unimer)","[6]; phosphate-chloride buffer pH 6.8, I = 0.10 M, 20.0 °C, s vs c plot extrapolated to low concentration",~ 0.7 S
same,"concentration below which the assembly dissociates (separation, bimodality)","[6]; phosphate-chloride buffer pH 6.8, I = 0.10 mol/L, 20.0 °C",< 500 µg/mL
same,z-average hydrodynamic radius rz,[7],~ 3.2 nm
same,intrinsic viscosity [η],[8],3.2 ± 0.1 mL/g
same,weight-average molar mass Mw in 6 M GuHCl,[9],1.75 ± 0.35 kDa
teicoplanin aglycon,self-association in solution,[10],dimerise weakly
vancomycin,antiviral activity against CTSL-dependent viruses,CTSL-dependent viruses,cannot express antiviral activity
